# Test results taken from publication PMC3702004, “Comparison of Intake and Systemic Relative Effect Potencies of Dioxin-like Compounds in Female Mice after a Single Oral Dose” (Environmental Health Perspectives, 2013).
# Columns and labels:
# [1] = toxic equivalency factor relative to TCDD; ref Van den Berg et al. 2006; cited from earlier work
# [2] = Body and organ weight, hepatic lipid content; assay type: in vivo, female C57BL/6 mice; settings: day 3; for % lipid / g liver: pooled liver samples
# Procedure: Animals. Eight-week-old female C57BL/6 mice (Harlan laboratories, Venray, the Netherlands) were randomly assigned to treatment groups (six animals per group) and allowed to acclimate for 1.5 weeks. The animals were housed in groups in standard cages and conditions (23 ± 2°C, 50–60% relative humidity, 12-hr dark/light cycle) with free access to food and water. Mice received a single dose of test compound by oral gavage at a dosing volume of 10 mL/kg body weight (BW). Mice treated with corn oil vehicle (10 mL/kg BW) served as controls. For each congener, five different doses were administered, ranging from 0.5–100 μg/kg BW (TCDD) to 5,000–500,000 µg/kg BW (PCB-153). Detailed information on doses is provided in Supplemental Material, Table S1 (http://dx.doi.org/10.1289/ehp.1206336). On day 3 after dosing, animals were euthanized by CO2/O2 asphyxiation, and blood was immediately collected from the abdominal aorta. The liver, thymus, spleen, and adipose tissue were removed, weighed (liver, thymus, and spleen), snap frozen, and stored at –80°C. All animal treatments were performed with permission of the Animal Ethical Committee (DEC Utrecht) and performed according to the [Law on Animal Experiments (1977)]. Animals were treated humanely and with regard for alleviation of suffering.
# Compound analysis. Adipose and liver tissues samples were homogenized in Na2SO4, followed by extraction and clean-up in one step, and then eluted with 200 mL 1:1 hexane:dichloromethane on an open column packed with 40% wt/wt H2SO4-impregnated silica and KOH-silica. Blood plasma samples were extracted on an open column using Chem-Elut (Agilent Technologies, Santa Clara, CA, USA) and then NaCl eluted with 75 mL 3:2 hexane:2-propanol. Clean-up was performed using a miniaturized silica column (as described above), and samples were eluted using 30 mL hexane. Because the samples typically contained high levels of the analytes, only a small fraction was evaporated and analyzed. Prior to evaporation, we spiked a fraction of the samples with ^13C-labeled standards. We checked potential loss of analytes during extraction and clean-up by reextracting the samples using the identical protocol used for the samples. […] Tetradecane was added prior to evaporation. Sample analysis followed the U.S. Environmental Protection Agency Method 1613 ([U.S. Environmental Protection Agency 1994]) using single ion monitoring mode on an Agilent 6809N gas chromatograph (Agilent Technologies) coupled with a Micromass Ultima Autospec Ultra high-resolution mass spectrometer (HRMS; Waters Corp., Milford, MA, USA). Compounds were separated on a 60 m × 0.25 mm DB5-MS column ([…]; J&W Scientific, Folsom, CA, USA). The HRMS was operated with electron impact ionization with electron energy of 35 eV and an ion source temperature of 250°C. To reduce the number of analyses, samples were pooled before clean-up. […] This method was used because full congener–specific separation could be achieved on the high-resolution GC–HRMS. For lipid determination, samples were evaporated to dryness after the extraction step, and the amount of lipids was determined gravimetrically. Concentrations were calculated based on lipid weight and wet weight. The analysis of samples for the PCB-118 5,000 μg/kg BW dose failed during the procedure; thus analysis for this group could not be completed.
# Statistical analysis. Statistical significant differences of the means and variances were determined using one-way analysis of variance (ANOVA) followed by Tukey-Kramer multiple comparisons. Differences were considered statistically significant at p < 0.05. Statistical calculations were performed using GraphPad 6.01 (GraphPad Software Inc.).
smiles,measurement,setting,value
"Clc1cc2oc3c(Cl)c(Cl)c(Cl)cc3c2cc1Cl [Congener 4-PeCDF, 2,3,4,7,8-pentachlorodibenzofuran]",WHO-TEF,[1],0.3
same,Body weight,[2]; oral dose 5 µg/kg bw,19.3 ± 1.2 gram
same,Liver weight,[2]; oral dose 5 µg/kg bw,5.37 ± 0.32 % of bw
same,Spleen weight,[2]; oral dose 5 µg/kg bw,0.29 ± 0.05 % of bw
same,Thymus weight,[2]; oral dose 5 µg/kg bw,0.26 ± 0.07 % of bw
same,% lipid / g liver,[2]; oral dose 5 µg/kg bw,3.6%
same,Body weight,[2]; oral dose 25 µg/kg bw,19.0 ± 1.1 gram
same,Liver weight,[2]; oral dose 25 µg/kg bw,5.32 ± 0.19 % of bw
same,Spleen weight,[2]; oral dose 25 µg/kg bw,0.33 ± 0.04 % of bw
same,Thymus weight,[2]; oral dose 25 µg/kg bw,0.24 ± 0.04 % of bw
same,% lipid / g liver,[2]; oral dose 25 µg/kg bw,4.5%
same,Body weight,[2]; oral dose 100 µg/kg bw,19.2 ± 1.0 gram
same,Liver weight,[2]; oral dose 100 µg/kg bw,5.94 ± 0.27 % of bw
same,Spleen weight,[2]; oral dose 100 µg/kg bw,0.32 ± 0.03 % of bw
same,Thymus weight,[2]; oral dose 100 µg/kg bw,0.22 ± 0.04 % of bw
same,% lipid / g liver,[2]; oral dose 100 µg/kg bw,4.5%
same,Body weight,[2]; oral dose 250 µg/kg bw,19.8 ± 1.0 gram
same,Liver weight,[2]; oral dose 250 µg/kg bw,6.05 ± 0.42 % of bw
same,Spleen weight,[2]; oral dose 250 µg/kg bw,0.34 ± 0.04 % of bw
same,Thymus weight,[2]; oral dose 250 µg/kg bw,0.23 ± 0.03 % of bw
same,Body weight,[2]; oral dose 1000 µg/kg bw,20.2 ± 1.1 gram
same,Liver weight,[2]; oral dose 1000 µg/kg bw,6.35 ± 0.30 % of bw
same,Spleen weight,[2]; oral dose 1000 µg/kg bw,0.32 ± 0.02 % of bw
same,Thymus weight,[2]; oral dose 1000 µg/kg bw,0.22 ± 0.04 % of bw
same,Dose with significant increase in liver weight vs vehicle controls,[2]; single oral dose,≥ 100 µg/kg BW
"Clc1ccc(-c2cc(Cl)c(Cl)cc2Cl)cc1Cl [PCB-118, 2,3´,4,4´,5-pentachlorobiphenyl]",WHO-TEF,[1],0.00003
same,Body weight,[2]; oral dose 5000 µg/kg bw,18.3 ± 0.9 gram
same,Liver weight,[2]; oral dose 5000 µg/kg bw,5.04 ± 0.22 % of bw
same,Spleen weight,[2]; oral dose 5000 µg/kg bw,0.32 ± 0.03 % of bw
same,Thymus weight,[2]; oral dose 5000 µg/kg bw,0.27 ± 0.03 % of bw
same,% lipid / g liver,[2]; oral dose 5000 µg/kg bw,2.7%
same,Body weight,[2]; oral dose 15000 µg/kg bw,18.3 ± 0.8 gram
same,Liver weight,[2]; oral dose 15000 µg/kg bw,5.06 ± 0.22 % of bw
same,Spleen weight,[2]; oral dose 15000 µg/kg bw,0.33 ± 0.05 % of bw
same,Thymus weight,[2]; oral dose 15000 µg/kg bw,0.23 ± 0.04 % of bw
same,% lipid / g liver,[2]; oral dose 15000 µg/kg bw,3.3%
same,Body weight,[2]; oral dose 50000 µg/kg bw,18.0 ± 1.8 gram
same,Liver weight,[2]; oral dose 50000 µg/kg bw,4.87 ± 0.41 % of bw
same,Spleen weight,[2]; oral dose 50000 µg/kg bw,0.30 ± 0.03 % of bw
same,Thymus weight,[2]; oral dose 50000 µg/kg bw,0.20 ± 0.05 % of bw
same,% lipid / g liver,[2]; oral dose 50000 µg/kg bw,3.5%
same,Body weight,[2]; oral dose 150000 µg/kg bw,19.2 ± 0.8 gram
same,Liver weight,[2]; oral dose 150000 µg/kg bw,6.14 ± 0.45 % of bw
same,Spleen weight,[2]; oral dose 150000 µg/kg bw,0.34 ± 0.04 % of bw
same,Thymus weight,[2]; oral dose 150000 µg/kg bw,0.21 ± 0.05 % of bw
same,% lipid / g liver,[2]; oral dose 150000 µg/kg bw,4.6%
same,Body weight,[2]; oral dose 500000 µg/kg bw,19.1 ± 1.0 gram
same,Liver weight,[2]; oral dose 500000 µg/kg bw,7.23 ± 0.29 % of bw
same,Spleen weight,[2]; oral dose 500000 µg/kg bw,0.31 ± 0.03 % of bw
same,Thymus weight,[2]; oral dose 500000 µg/kg bw,0.23 ± 0.04 % of bw
same,Dose with significant increase in liver weight vs vehicle controls,[2]; single oral dose,"≥ 150,000 µg/kg BW"
"Clc1cc(Cl)c(-c2cc(Cl)c(Cl)cc2Cl)cc1Cl [PCB-153, 2,2´,4,4´,5,5´-hexachlorobiphenyl]",Body weight,[2]; oral dose 5000 µg/kg bw,18.8 ± 1.1 gram
same,Liver weight,[2]; oral dose 5000 µg/kg bw,4.71 ± 0.34 % of bw
same,Spleen weight,[2]; oral dose 5000 µg/kg bw,0.30 ± 0.04 % of bw
same,Thymus weight,[2]; oral dose 5000 µg/kg bw,0.25 ± 0.05 % of bw
same,% lipid / g liver,[2]; oral dose 5000 µg/kg bw,3.3%
same,Body weight,[2]; oral dose 15000 µg/kg bw,19.1 ± 0.5 gram
same,Liver weight,[2]; oral dose 15000 µg/kg bw,4.96 ± 0.10 % of bw
same,Spleen weight,[2]; oral dose 15000 µg/kg bw,0.36 ± 0.04 % of bw
same,Thymus weight,[2]; oral dose 15000 µg/kg bw,0.26 ± 0.04 % of bw
same,% lipid / g liver,[2]; oral dose 15000 µg/kg bw,3.9%
same,Body weight,[2]; oral dose 50000 µg/kg bw,19.6 ± 0.8 gram
same,Liver weight,[2]; oral dose 50000 µg/kg bw,5.15 ± 0.38 % of bw
same,Spleen weight,[2]; oral dose 50000 µg/kg bw,0.33 ± 0.04 % of bw
same,Thymus weight,[2]; oral dose 50000 µg/kg bw,0.29 ± 0.03 % of bw
same,% lipid / g liver,[2]; oral dose 50000 µg/kg bw,3.4%
same,Body weight,[2]; oral dose 150000 µg/kg bw,19.9 ± 1.1 gram
same,Liver weight,[2]; oral dose 150000 µg/kg bw,5.47 ± 0.37 % of bw
same,Spleen weight,[2]; oral dose 150000 µg/kg bw,0.34 ± 0.05 % of bw
same,Thymus weight,[2]; oral dose 150000 µg/kg bw,0.25 ± 0.04 % of bw
same,Body weight,[2]; oral dose 500000 µg/kg bw,18.8 ± 0.7 gram
same,Liver weight,[2]; oral dose 500000 µg/kg bw,5.80 ± 0.30 % of bw
same,Spleen weight,[2]; oral dose 500000 µg/kg bw,0.33 ± 0.05 % of bw
same,Thymus weight,[2]; oral dose 500000 µg/kg bw,0.24 ± 0.04 % of bw
same,Dose with significant increase in liver weight vs vehicle controls,[2]; single oral dose,"≥ 500,000 µg/kg BW"
same,Dose with statistically significant decrease in relative thymus weight vs vehicle controls,[2]; single oral dose,"500,000 μg/kg BW"
